Reference: EP4806891A1 (Kangbaida (Sichuan) Biotechnology Co., Ltd., priority 2023, dated 2025)

Key:
HEK-Blue-hTLR8 cells = biological target: T1, HEK-Blue-hTLR8 cells (Homo sapiens, UniProt Q9NR97); experiment: HEK-Blue-hTLR8 cell inhibition assay; format: cell-based; settings: R848 3 µM, 16 h, OD 620 nm, read-out: TLR8 IC50
T1 construct: expressed in transfected cells; host or cells: HEK-Blue-hTLR8 cells (HEK293-derived reporter line)
T1 sequence (Q9NR97 27-1041): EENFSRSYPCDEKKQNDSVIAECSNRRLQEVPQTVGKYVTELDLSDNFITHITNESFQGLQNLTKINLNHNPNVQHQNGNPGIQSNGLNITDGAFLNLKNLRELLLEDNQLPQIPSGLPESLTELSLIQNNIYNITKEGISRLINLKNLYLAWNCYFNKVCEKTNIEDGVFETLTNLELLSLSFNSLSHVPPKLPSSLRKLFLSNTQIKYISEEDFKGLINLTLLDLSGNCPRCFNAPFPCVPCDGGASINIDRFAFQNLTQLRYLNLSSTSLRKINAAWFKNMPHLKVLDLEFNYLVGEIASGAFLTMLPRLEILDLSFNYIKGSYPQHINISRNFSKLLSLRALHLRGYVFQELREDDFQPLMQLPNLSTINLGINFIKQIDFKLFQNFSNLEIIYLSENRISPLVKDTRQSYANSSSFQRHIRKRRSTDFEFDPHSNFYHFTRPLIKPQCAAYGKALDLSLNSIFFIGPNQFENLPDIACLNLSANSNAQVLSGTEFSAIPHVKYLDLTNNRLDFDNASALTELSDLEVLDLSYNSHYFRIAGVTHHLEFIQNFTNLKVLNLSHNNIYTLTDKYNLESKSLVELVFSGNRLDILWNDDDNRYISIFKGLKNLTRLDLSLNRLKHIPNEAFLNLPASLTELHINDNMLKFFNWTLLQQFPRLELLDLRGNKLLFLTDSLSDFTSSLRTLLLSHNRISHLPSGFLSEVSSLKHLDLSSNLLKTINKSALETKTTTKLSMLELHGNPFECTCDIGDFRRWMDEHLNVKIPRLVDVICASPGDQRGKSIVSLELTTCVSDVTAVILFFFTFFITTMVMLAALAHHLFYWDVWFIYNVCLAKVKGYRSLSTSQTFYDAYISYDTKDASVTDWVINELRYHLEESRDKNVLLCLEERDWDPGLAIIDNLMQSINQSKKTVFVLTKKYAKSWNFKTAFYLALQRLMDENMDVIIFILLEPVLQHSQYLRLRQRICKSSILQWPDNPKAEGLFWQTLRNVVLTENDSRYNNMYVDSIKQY
Experimental: (§1) HEK-Blue-hTLR7/8/9 cell inhibition assay
(§2) 1. HEK-Blue-hTLR7/8 cells (1 × 10^4 cells/well) and HEK-Blue-hTLR9 cells (1.5 × 10^4 cells/well) were seeded in a 384-well cell culture plate, with a volume of 30 µL per well. The plate was incubated at 37°C in a 5% CO2 incubator for 4 h. 2. The compound was prepared with DMSO and diluted in DMEM medium to 10 concentrations (1:3 dilution), with final concentrations of 10000, 3333.3, 1111.1, 370.4, 123.5, 41.2, 13.7, 4.6, 1.5, and 0.5 nM; R848 was prepared with DMSO and diluted in DMEM medium, with final concentrations of 0.8 µM (HEK-Blue-hTLR7) and 3 µM (HEK-Blue-hTLR8); ODN2006 was prepared with endotoxin-free water and diluted in DMEM medium, with a final concentration of 1 µM. 3. Cells treated with DMSO were used as the blank control group, while cells treated solely with Resiquimod (R848) were used as the positive control group for HEK-Blue-hTLR7/8, and cells treated solely with ODN2006 were used as the positive control group for HEK-Blue-hTLR9. Cells treated with the test compound together with R848 or ODN2006 were used as the test group. Two parallel wells were set for each group and were placed at 37°C in a 5% CO2 incubator for incubation. 4. After being incubated for 4 h, the 384-well plate of HEK-Blue-hTLR7/8 was taken out from the incubator, and R848 alone or both R848 and the diluted compound were separately added into each well. The plate was placed at 37°C in a 5% CO2 incubator for incubation for 16 h; the 384-well plate of HEK-Blue-hTLR9 was taken out from the incubator, and ODN2006 alone or both ODN2006 and the diluted compound were added separately to each well. The plate was incubated at 37°C in a 5% CO2 incubator for 16 h. 5. After being incubated for 16 h, the 384-well plate was removed from the incubator and centrifuged at 1000 rpm for 1 minute. The optical density value of each well at 620 nm was measured using a multifunctional microplate reader. 6. The cell inhibition rate was calculated as (1-(OD620 test group-OD620 blank group)/(OD620 positive group-OD620 blank group))×100%, and the half maximal inhibitory concentration (IC50) was calculated through curve fitting. Table 1: Activity of the compounds of the present disclosure in HEK-Blue-hTLR7/8/9 cellular assays

HEK-Blue-hTLR7 cells = biological target: T2, HEK-Blue-hTLR7 cells (Homo sapiens, UniProt Q9NYK1); experiment: HEK-Blue-hTLR7 cell inhibition assay; format: cell-based; settings: R848 0.8 µM, 16 h, OD 620 nm, read-out: TLR7 IC50
T2 construct: expressed in transfected cells; host or cells: HEK-Blue-hTLR7 cells (HEK293-derived reporter line)
T2 sequence (Q9NYK1 27-1049): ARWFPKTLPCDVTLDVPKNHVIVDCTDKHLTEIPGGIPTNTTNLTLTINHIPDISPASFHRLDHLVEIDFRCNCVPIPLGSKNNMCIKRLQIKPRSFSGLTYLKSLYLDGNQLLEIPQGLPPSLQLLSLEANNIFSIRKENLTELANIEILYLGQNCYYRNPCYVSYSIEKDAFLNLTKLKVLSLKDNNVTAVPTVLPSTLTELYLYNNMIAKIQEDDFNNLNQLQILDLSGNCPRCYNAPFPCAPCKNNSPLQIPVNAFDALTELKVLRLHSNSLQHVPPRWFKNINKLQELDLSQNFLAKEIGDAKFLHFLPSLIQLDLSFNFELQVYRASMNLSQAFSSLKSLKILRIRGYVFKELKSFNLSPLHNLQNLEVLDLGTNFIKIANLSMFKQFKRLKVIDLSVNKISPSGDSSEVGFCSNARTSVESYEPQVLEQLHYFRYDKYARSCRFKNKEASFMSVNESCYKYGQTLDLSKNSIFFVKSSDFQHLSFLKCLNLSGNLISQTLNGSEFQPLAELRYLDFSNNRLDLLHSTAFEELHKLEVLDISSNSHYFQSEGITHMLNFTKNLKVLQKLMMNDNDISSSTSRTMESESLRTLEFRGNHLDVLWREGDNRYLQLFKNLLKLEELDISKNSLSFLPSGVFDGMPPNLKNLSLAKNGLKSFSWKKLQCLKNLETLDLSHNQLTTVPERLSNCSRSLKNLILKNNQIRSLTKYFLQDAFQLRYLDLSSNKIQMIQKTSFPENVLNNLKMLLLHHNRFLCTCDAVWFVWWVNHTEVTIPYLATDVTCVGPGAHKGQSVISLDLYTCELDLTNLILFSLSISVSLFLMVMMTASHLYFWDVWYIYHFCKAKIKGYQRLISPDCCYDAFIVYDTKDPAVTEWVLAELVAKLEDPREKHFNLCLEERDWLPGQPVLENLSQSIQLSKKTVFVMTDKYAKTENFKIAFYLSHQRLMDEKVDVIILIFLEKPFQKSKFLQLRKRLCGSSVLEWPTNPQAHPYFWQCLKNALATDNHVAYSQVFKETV
Experimental: as §1, §2

Compound | IC50 (HEK-Blue-hTLR8 cells) [nM] | IC50 (HEK-Blue-hTLR7 cells) [nM]
CN1CCC(n2cnc([C@]34CN(c5ccc(C#N)n6ncc(F)c56)C[C@@]3(C(F)(F)F)C4)n2)CC1 [Compound 74, 3-fluoro-4-((1S,5R)-1-(1-(1-methylpiperidin-4-yl)-1H-1,2,4-triazol-3-yl)-5-(trifluoromethyl)-3-azabicyclo[3.1.0]hexan-3-yl)pyrazolo[1,5-a]pyridine-7-carbonitrile] | < 100 | < 100
CN1[C@@H]2CC[C@H]1C[C@@H](c1nnc([C@]34CN(c5ccc(C(F)(F)F)c6ncccc56)C[C@@]3(C(F)(F)F)C4)o1)C2 [Compound 78, 2-((1R,3R,5S)-8-methyl-8-azabicyclo[3.2.1]octan-3-yl)-5-((1S,5R)-5-(trifluoromethyl)-3-(8-(trifluoromethyl)quinolin-5-yl)-3-azabicyclo[3.1.0]hexan-1-yl)-1,3,4-oxadiazole] | < 100 | < 100

The next lines start with the values.

IC50 (HEK-Blue-hTLR8 cells) [nM] | IC50 (HEK-Blue-hTLR7 cells) [nM] | Compound
< 100 | < 100 | CN(C)C12CCC(c3nnc([C@]45CN(c6ccc(C(F)(F)F)c7ncccc67)C[C@@]4(C(F)(F)F)C5)o3)(CC1)CC2 [Compound 82, N,N-dimethyl-4-(5-((1S,5R)-5-(trifluoromethyl)-3-(8-(trifluoromethyl)quinolin-5-yl)-3-azabicyclo[3.1.0]hexan-1-yl)-1,3,4-oxadiazol-2-yl)bicyclo[2.2.2]octan-1-amine]
< 100 | < 100 | CN1CCC(c2nnc([C@]34CN(c5ccc(C(F)(F)F)c6nccnc56)C[C@@]3(C(F)(F)F)C4)o2)CC1 [Compound 88, 2-(1-methylpiperidin-4-yl)-5-((1S,5R)-5-(trifluoromethyl)-3-(8-(trifluoromethyl)quinoxalin-5-yl)-3-azabicyclo[3.1.0]hexan-1-yl)-1,3,4-oxadiazole]
< 100 | < 100 | CN1CCC(Oc2nnc([C@]34CN(c5ccc(C#N)n6nccc56)C[C@@]3(C(F)(F)F)C4)o2)CC1 [Compound 89, 4-((1S,5R)-1-(5-((1-methylpiperidin-4-yl)oxy)-1,3,4-oxadiazol-2-yl)-5-(trifluoromethyl)-3-azabicyclo[3.1.0]hexan-3-yl)pyrazolo[1,5-a]pyridine-7-carbonitrile]
